Test results published in patent US9546195B2, “Hydrophobic ceragenin compounds and devices incorporating same” (BRIGHAM YOUNG UNIVERSITY, priority 2011, dated 2017).

Columns and labels:
[1] = test system: microbes; assay: Ability to elute from polymer and kill microbes; settings: compared with other ceragenins
[2] = test system: S. aureus; assay: MIC of CSA-138 for S. aureus; format: cell-based; settings: Staphylococcus aureus
[3] = Elution of CSA-138 from hydrogel contact lenses, LC/MS with mass-labeled internal standard; format: physicochemical; settings: lenses with CSA-138 incorporated at 1%; LC/MS detection limit about 2 μg/ml
Method: To better understand the mechanism by which hydrophobic ceragenin compounds can prevent bacterial colonization, the bonding between CSA-138 and a hydrogel used in contact lenses was evaluated. In a first example, we determined the rate at which CSA-138 elutes from a hydrogel suitable for use in contact lenses. To quantify the amount of ceragenin eluting from the hydrogel, we used LC/MS using a mass-labeled internal standard. However, this method only gave detection limits of about 2 μg/ml, and we were able to effectively kill bacteria at constant elution rates below the detection limit.

[4] = test system: P. aeruginosa; settings: elution from lenses, inocula 10^6 CFU P. aeruginosa; cited from earlier work
[5] = test system: P. aeruginosa; assay: MIC of CSA-138 for P. aeruginosa; format: cell-based; settings: Pseudomonas aeruginosa
[6] = Elution of radiolabeled CSA-138 from hydrogel contact lenses, scintillation counting; format: physicochemical
Method: To decrease the detection limit for CSA-138, we prepared a radiolabeled version of CSA-138 (CSA-138T2), incorporated it into contact lenses, and quantified its elution from lenses using scintillation counting.
Lenses containing 1% CSA-138 were stored in 0.5 mL phosphate buffered saline (PBS) prior to testing. One set of lenses was autoclaved for 45 min before elution studies were performed. For elution studies, lenses were suspended in 2 ml aliquots of PBS, 10% TSB growth medium, 10% TSB growth medium containing 10^6 CFU of Staphylococcus aureus, or 10% TSB growth medium containing 10^6 CFU of Pseudomonas aeruginosa. Corresponding aliquots were exchanged every 24 h, including bacterial inocula. Samples were removed every 24 h and analyzed for the presence of CSA-138 using scintillation counting. A standard curve was generated to correlate counts per minute to concentration of CSA-138. All experiments were performed in triplicate.

[7] = test system: S. aureus; settings: elution from lenses, inocula 10^6 CFU S. aureus; cited from earlier work

| Structure (SMILES) | ability to elute and kill microbes [1] | MIC [2] [µg/mL] | time until elution fell below detection limits [3] | prevents colonization [4] [days] | MIC [5] [µg/mL] | elution in the presence of bacteria ([6]; 10% TSB with 10^6 CFU S. aureus (nine days) or P. aeruginosa (eight days), FIGS. 6 and 7) | elution on the first day ([6]; lenses containing 1% CSA-138, suspended in 2 ml PBS, first day (FIG. 3)) | time until elution of CSA-138 drops below 1 μg/ml ([6]; trend of FIG. 5 extended) | prevents colonization, consecutive days [7] [days] |
| --- | --- | --- | --- | --- | --- | --- | --- | --- | --- |
| CCCCCCCCCCNCCC[C@@H](C)[C@H]1CC[C@H]2[C@@H]3[C@H](OCCCN)C[C@@H]4C[C@H](OCCCN)CC[C@]4(C)[C@H]3C[C@H](OCCCN)[C@]12C [CSA-136] | advantageous over CSA-135 | – | – | – | – | – | – | – | – |
| CCCCCCCCCCCCCNCCC[C@@H](C)[C@H]1CC[C@H]2[C@@H]3[C@H](OCCCN)C[C@@H]4C[C@H](OCCCN)CC[C@]4(C)[C@H]3C[C@H](OCCCN)[C@]12C [CSA-138] | – | 0.5 | within five days | 19 | 1 | fluctuated substantially | about 2.2 μg/ml | about 40 days | 30 |
